TGI data for eight compounds are collected here from PubChem BioAssay (NCI).

Among the test systems are HL-60(TB) leukemia; 786-0 renal; SNB-19 CNS; RPMI-8226 leukemia; UO-31 renal; HOP-92 NSCLC; OVCAR-8 ovarian; OVCAR-5 ovarian; HOP-62 NSCLC; MCF7 breast; SK-MEL-5 melanoma; HCT-116 colon; MALME-3M melanoma; NCI-H23 lung; NCI-H226 lung; CAKI-1 renal; T-47D breast; HT29 colon; MDA-MB-435; SK-OV-3 ovarian.
Common to all, as to assay: DTP human tumour cell line panel, 48 h

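Each compound was tested at five concentrations against cells in 96-well plates for 48 hours. TGI: concentration producing complete growth inhibition.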

As a reminder, the TGI is the concentration at which net growth stops. A low value points to greater sensitivity of the cells. In the case of `O=c1[nH]c(=O)n(C/C=C/CBr)nc1Br`, the TGI in the test with HL-60(TB) leukemia was found to be 24.5 µM; in the test on 786-0 renal it was 26.3 µM; in the test with SNB-19 CNS, 28.1 µM; in the test on RPMI-8226 leukemia, 23.3 µM; with UO-31 renal, 32.5 µM; with HOP-92 NSCLC, 26.5 µM. The TGI in the test on OVCAR-8 ovarian came to 29.9 µM; in the test on OVCAR-5 ovarian it was 31.1 µM; in the test with HOP-62 NSCLC it was 37.9 µM; in the test on MCF7 breast, 22.2 µM; in the test on SK-MEL-5 melanoma it was 25.9 µM; with HCT-116 colon it was 26.3 µM. Also, the concentration for total growth inhibition (TGI) in the test with MALME-3M melanoma was determined as 27.5 µM; in the test on NCI-H23 lung it was 25.5 µM; in the test on NCI-H226 lung, 27.8 µM; in the test with CAKI-1 renal, 24.9 µM; with T-47D breast, 28.2 µM; with HT29 colon, 26.1 µM. The compound further displayed a TGI in the test on MDA-MB-435 of 27.2 µM.
With `Cc1ccc(-c2cc(-c3c(C)nn(C)c(=O)c3N)[nH]n2)cc1`, the TGI in the test on HL-60(TB) leukemia, in the test with 786-0 renal, with SNB-19 CNS, with RPMI-8226 leukemia, in the test on SK-OV-3 ovarian and with HOP-92 NSCLC was over 100 µM each time. Also, the TGI with OVCAR-8 ovarian, in the test on OVCAR-5 ovarian, in the test on MCF7 breast, in the test with SK-MEL-5 melanoma, with HCT-116 colon and with MALME-3M melanoma was over 100 µM each time. In addition, the TGI in the test with NCI-H23 lung, in the test on NCI-H226 lung, with CAKI-1 renal, in the test with T-47D breast, in the test on HT29 colon and in the test on MDA-MB-435 was over 100 µM throughout.
Regarding `COCCOCCOCCOc1ccc(C(C#N)N(CCc2ccccc2)C(=O)c2cc(C(=O)N(CCc3ccccc3)C(C#N)c3ccc(OCCOCCOCCOC)cc3)cc(C(=O)N(CCc3ccccc3)C(C#N)c3ccc(OCCOCCOCCOC)cc3)c2)cc1` (configuration not stated), the TGI with HL-60(TB) leukemia, with 786-0 renal, in the test with SNB-19 CNS, in the test with UO-31 renal, with SK-OV-3 ovarian and in the test on HOP-92 NSCLC was over 100 µM throughout. The TGI in the test with OVCAR-8 ovarian, with OVCAR-5 ovarian, with HOP-62 NSCLC, in the test on MCF7 breast, in the test with SK-MEL-5 melanoma and with HCT-116 colon was over 100 µM in each case. Further, the total growth inhibition concentration (TGI) with MALME-3M melanoma, in the test on NCI-H23 lung, in the test with NCI-H226 lung, in the test on T-47D breast, with HT29 colon and in the test with MDA-MB-435 was over 100 µM each time.
As to `Cc1cc(C)n(CN(Cn2nc(C)cc2C)c2ccccc2)n1`, the TGI with HL-60(TB) leukemia is 27.3 µM; in the test on 786-0 renal it was 48.5 µM; in the test with SNB-19 CNS, over 100 µM; in the test on RPMI-8226 leukemia, 47.6 µM; in the test with UO-31 renal, 78.5 µM; in the test with SK-OV-3 ovarian it was over 100 µM. The TGI was over 100 µM in the test on HOP-92 NSCLC; 56 µM in the test with OVCAR-8 ovarian; 69.6 µM in the test with OVCAR-5 ovarian; 66.8 µM with HOP-62 NSCLC; 68.1 µM in the test with MCF7 breast; 62.4 µM in the test on SK-MEL-5 melanoma. Further, the TGI is 41.4 µM in the test with HCT-116 colon; 52.7 µM in the test with MALME-3M melanoma; 40.8 µM in the test on NCI-H23 lung; over 100 µM with CAKI-1 renal; over 100 µM in the test with T-47D breast; 35.6 µM with HT29 colon. In the test on MDA-MB-435, this compound showed a TGI of 29.1 µM.
As to `Cn1c(-c2ccc(N=NNc3ccc(-c4n[nH]c(=S)n4C)cc3)cc2)n[nH]c1=S`, the TGI with HL-60(TB) leukemia was over 100 µM; in the test on 786-0 renal, over 100 µM; with SNB-19 CNS, 70.2 µM; with SK-OV-3 ovarian, 54.9 µM; in the test with HOP-92 NSCLC, 8.84 µM; in the test on OVCAR-8 ovarian, 23.4 µM. The total growth inhibition concentration (TGI) in the test on OVCAR-5 ovarian was over 100 µM; in the test with HOP-62 NSCLC, 69.4 µM; in the test on MCF7 breast, over 100 µM; with SK-MEL-5 melanoma, 48.1 µM; in the test on HCT-116 colon it was over 100 µM; in the test on MALME-3M melanoma it was over 100 µM. In addition, the concentration for total growth inhibition (TGI) is over 100 µM with NCI-H23 lung; 48.8 µM in the test with NCI-H226 lung; 8.28 µM with T-47D breast; over 100 µM with HT29 colon; over 100 µM in the test on MDA-MB-435.
Regarding `N#Cc1c(N)c(C#N)c2c(c1-c1ccc(Cl)cc1)COc1ccccc1-2`, the TGI with HL-60(TB) leukemia turned out to be 68.8 µM; with 786-0 renal, 15.1 µM; with SNB-19 CNS it was 30.6 µM; in the test on RPMI-8226 leukemia, 17.1 µM; with UO-31 renal, 13 µM; in the test with SK-OV-3 ovarian, 36.9 µM. The concentration for total growth inhibition (TGI) is 45.5 µM in the test with HOP-92 NSCLC; over 100 µM with OVCAR-5 ovarian; 33.5 µM in the test on HOP-62 NSCLC; over 100 µM in the test with MCF7 breast; 71.6 µM in the test on SK-MEL-5 melanoma; 40.7 µM in the test with HCT-116 colon. Moreover, the TGI is 58.1 µM with MALME-3M melanoma; 39.9 µM in the test on NCI-H23 lung; 98.9 µM with NCI-H226 lung; 58.2 µM with T-47D breast; 40.3 µM in the test with HT29 colon; 99.4 µM with MDA-MB-435.
For the compound `NC(=S)NS(=O)(=O)c1ccc(F)cc1F`, the TGI with HL-60(TB) leukemia, in the test on 786-0 renal, with SNB-19 CNS, with RPMI-8226 leukemia, with SK-OV-3 ovarian and with HOP-92 NSCLC was over 100 µM throughout. In addition, the concentration for total growth inhibition (TGI) in the test on OVCAR-8 ovarian, with OVCAR-5 ovarian, in the test on HOP-62 NSCLC, with MCF7 breast, in the test with SK-MEL-5 melanoma and with HCT-116 colon was over 100 µM throughout. The TGI in the test on MALME-3M melanoma, in the test with NCI-H23 lung, with NCI-H226 lung, in the test with CAKI-1 renal, with T-47D breast and with HT29 colon was over 100 µM throughout. Further, the TGI in the test with MDA-MB-435 was over 100 µM.
As for `Nc1c(N2CCCCC2)c(=O)nc2[nH]/c(=C\c3ccccc3)c(=O)n12`, the TGI in the test on HL-60(TB) leukemia, in the test on 786-0 renal, in the test on SNB-19 CNS, in the test with RPMI-8226 leukemia, in the test with UO-31 renal and in the test on SK-OV-3 ovarian was over 100 µM each time. Moreover, the concentration for total growth inhibition (TGI) with HOP-92 NSCLC, in the test on OVCAR-8 ovarian, in the test on OVCAR-5 ovarian, in the test on MCF7 breast, in the test with SK-MEL-5 melanoma and with HCT-116 colon was over 100 µM in each case. Also, the TGI with MALME-3M melanoma, in the test on NCI-H23 lung, in the test on NCI-H226 lung, in the test with CAKI-1 renal, in the test with T-47D breast and with HT29 colon was over 100 µM throughout. Further, the concentration for total growth inhibition (TGI) in the test on MDA-MB-435 is over 100 µM.
